Laboratory results as given in KR20080072496A, “노스탁속 균주 유래 아밀로플루란네이즈 및 이를 이용한고순도 말토올리고당의 제조방법” (재단법인서울대학교산학협력재단, priority 2007, dated 2008).

Target: T1, Nostoc sp. PCC73102 amylopullulanase, SEQ ID NO: 4, recombinant from pETNPul6xH with C-terminal Leu-Glu-6His (노스탁속 균주 유래 아밀로플루란네이즈) (Nostoc punctiforme (strain ATCC 29133 / PCC 73102), UniProt B2IUW9)
T1 sequence (B2IUW9 1-488): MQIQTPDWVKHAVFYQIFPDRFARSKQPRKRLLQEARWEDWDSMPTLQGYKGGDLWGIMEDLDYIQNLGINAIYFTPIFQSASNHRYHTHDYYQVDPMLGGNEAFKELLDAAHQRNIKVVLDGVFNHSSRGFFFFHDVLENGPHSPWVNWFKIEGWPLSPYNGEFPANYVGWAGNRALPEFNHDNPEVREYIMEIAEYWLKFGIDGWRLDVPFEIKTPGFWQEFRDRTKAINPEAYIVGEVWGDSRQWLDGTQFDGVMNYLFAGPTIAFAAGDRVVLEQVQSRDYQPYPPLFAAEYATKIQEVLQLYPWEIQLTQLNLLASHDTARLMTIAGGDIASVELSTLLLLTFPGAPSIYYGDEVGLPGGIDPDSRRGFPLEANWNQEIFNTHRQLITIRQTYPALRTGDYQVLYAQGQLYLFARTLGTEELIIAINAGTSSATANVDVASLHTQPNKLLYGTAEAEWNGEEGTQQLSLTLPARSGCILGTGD
Assay: Kinetics of amylopullulanase on maltoheptaose, maltooctaose and maltononaose (Example 6-2, glucose quantified by GOD-POD method)
Type: biochemical
Conditions: 25 °C, pH 7, 3 min

| Compound | Kcat, ratio to Kcat of maltoheptaose (relative to maltoheptaose (G7)) | Km, ratio to Km of maltononaose (relative to maltononaose (G9)) | Km, ratio to Km of maltooctaose (relative to maltooctaose (G8)) |
| --- | --- | --- | --- |
| OC[C@H]1O[C@H](O[C@H]2[C@H](O)[C@@H](O)[C@@H](O[C@H]3[C@H](O)[C@@H](O)[C@@H](O[C@H]4[C@H](O)[C@@H](O)[C@@H](O[C@H]5[C@H](O)[C@@H](O)[C@@H](O[C@H]6[C@H](O)[C@@H](O)[C@@H](O[C@H]7[C@H](O)[C@@H](O)[C@@H](O[C@H]8[C@H](O)[C@@H](O)[C@@H](O[C@H]9[C@H](O)[C@@H](O)C(O)O[C@@H]9CO)O[C@@H]8CO)O[C@@H]7CO)O[C@@H]6CO)O[C@@H]5CO)O[C@@H]4CO)O[C@@H]3CO)O[C@@H]2CO)[C@H](O)[C@@H](O)[C@@H]1O (stereo partly drawn) [말토노나오스, maltononaose] | ~3 배 (fold) | – | – |
| OC[C@H]1O[C@H](O[C@H]2[C@H](O)[C@@H](O)[C@@H](O[C@H]3[C@H](O)[C@@H](O)[C@@H](O[C@H]4[C@H](O)[C@@H](O)[C@@H](O[C@H]5[C@H](O)[C@@H](O)[C@@H](O[C@H]6[C@H](O)[C@@H](O)[C@@H](O[C@H]7[C@H](O)[C@@H](O)C(O)O[C@@H]7CO)O[C@@H]6CO)O[C@@H]5CO)O[C@@H]4CO)O[C@@H]3CO)O[C@@H]2CO)[C@H](O)[C@@H](O)[C@@H]1O (stereo partly drawn) [말토헵타오스, maltoheptaose] | – | 20 배 (fold) | 7 배 (fold) |
